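Protocol summary: plate cells (96-well), add compound at 5 concentrations, incubate 48 h, interpolate endpoints linearly. Here, GI50 denotes the concentration required for 50% inhibition of growth. TGI marks complete inhibition of growth.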
Experiments:
Assay in all cases: growth of human tumour cells (NCI), 48 h
[1] = test system: OVCAR-3 ovarian
[2] = test system: M14 melanoma
[3] = test system: MDA-MB-231 breast
[4] = test system: HS 578T breast
[5] = test system: NCI/ADR-RES ovarian
[6] = test system: UO-31 renal
[7] = test system: SF-539 CNS
[8] = test system: OVCAR-8 ovarian
[9] = test system: NCI-H226 lung
[10] = test system: SN12C renal
[11] = test system: A549 NSCLC
[12] = test system: CAKI-1 renal
[13] = test system: HOP-92 NSCLC
[14] = test system: RPMI-8226 leukemia
[15] = test system: PC-3 prostate
[16] = test system: OVCAR-5 ovarian
[17] = test system: COLO 205 colon
[18] = test system: MDA-N
[19] = test system: MCF7 breast
[20] = test system: DU-145 prostate
[21] = test system: IGROV1 ovarian
[22] = test system: UACC-257 melanoma
[23] = test system: 786-0 renal
[24] = test system: HCC-2998 colon
[25] = test system: LOX IMVI melanoma
[26] = test system: SK-MEL-28 melanoma
[27] = test system: EKVX NSCLC
[28] = test system: UACC-62 melanoma
[29] = test system: SF-295 CNS
[30] = test system: SNB-19 CNS
[31] = test system: NCI-H522 lung
[32] = test system: CCRF-CEM leukemia
[33] = test system: SR leukemia
[34] = test system: TK-10 renal
[35] = test system: SW-620 colon
[36] = test system: SF-268 CNS
[37] = test system: KM12 colon
[38] = test system: HCT-116 colon
[39] = test system: SNB-75 CNS
[40] = test system: HT29 colon
[41] = test system: SK-MEL-2 melanoma
[42] = test system: ACHN renal
[43] = test system: U251 CNS
[44] = test system: MDA-MB-435
[45] = test system: HL-60(TB) leukemia
[46] = test system: MOLT-4 leukemia
[47] = test system: RXF 393 renal
[48] = test system: T-47D breast
[49] = test system: SK-OV-3 ovarian
[50] = test system: NCI-H460 lung
[51] = test system: NCI-H23 lung
[52] = test system: K-562 leukemia
[53] = test system: SK-MEL-5 melanoma
[54] = test system: HOP-62 NSCLC
[55] = test system: HCT-15 colon
[56] = test system: OVCAR-4 ovarian
[57] = test system: BT-549 breast
[58] = test system: MALME-3M melanoma
[59] = test system: A498 renal

## COc1cc(-c2coc3c(OC)c(OC4OC(CO)C(O)C(O)C4O)c(OC)cc3c2=O)cc(OC)c1C (centres undefined)
[1]
  TGI: > 100 µM
[2]
  TGI: 23.2 µM
[3]
  TGI: > 54.5 µM
[4]
  TGI: 15.4 µM
[5]
  TGI: 27.4 µM
[6]
  TGI: 21 µM
[7]
  TGI: > 29 µM
[8]
  TGI: 25.3 µM
[9]
  TGI: 68.1 µM
[10]
  TGI: 51.8 µM
[11]
  TGI: > 55.6 µM
[12]
  TGI: 31 µM
[13]
  TGI: 38.4 µM
[14]
  TGI: > 100 µM
[15]
  TGI: > 54.3 µM
[16]
  TGI: 32.7 µM
[17]
  TGI: > 54.2 µM
[18]
  TGI: 46.7 µM
[19]
  TGI: 25.8 µM
[20]
  TGI: 26.8 µM
[21]
  TGI: 30.9 µM
[22]
  TGI: > 31.6 µM
[23]
  TGI: > 100 µM
[24]
  TGI: 18.6 µM
[25]
  TGI: > 31.2 µM
[26]
  TGI: > 28.4 µM
[27]
  TGI: 27.3 µM
[28]
  TGI: 17.2 µM
[29]
  TGI: 28.5 µM
[30]
  TGI: 28.6 µM
[31]
  TGI: 11.1 µM
[32]
  TGI: > 41.7 µM
[33]
  TGI: > 100 µM
[34]
  TGI: > 70.3 µM
[35]
  TGI: > 41.3 µM
[36]
  TGI: 21.5 µM
[37]
  TGI: 28.3 µM
[38]
  TGI: > 100 µM
[39]
  TGI: 21.6 µM
[40]
  TGI: 35.1 µM
[41]
  TGI: 41.1 µM
[42]
  TGI: 30 µM
[43]
  TGI: > 34.6 µM
[44]
  TGI: 17.9 µM
[45]
  TGI: > 100 µM
[46]
  TGI: > 36 µM
[47]
  TGI: 8.85 µM
[48]
  TGI: 45.1 µM
[49]
  TGI: 23.4 µM
[50]
  TGI: > 70.1 µM
[51]
  TGI: 14.1 µM
[52]
  TGI: > 70.4 µM
[53]
  TGI: 27.8 µM
[54]
  TGI: 44.1 µM
[55]
  TGI: 19.6 µM
[56]
  TGI: 63.2 µM
[57]
  TGI: 16.1 µM
[58]
  TGI: 29.7 µM

## CC(=O)O[C@H]1C(=O)[C@@]2(C)[C@H]([C@H](OC(=O)C3CCCCC3)[C@]3(O)C[C@H](OC(=O)[C@H](O)[C@@H](NC(=O)C4CCCCC4)C4CCCCC4)C(C)=C1C3(C)C)[C@]1(OC(C)=O)CO[C@@H]1C[C@@H]2O
[1]
  TGI: 0.0355 µM
[2]
  TGI: 1.2 µM
[3]
  TGI: 0.476 µM
[4]
  TGI: 0.0531 µM
[5]
  TGI: 5.68 µM
[6]
  TGI: 6.23 µM
[7]
  TGI: 0.766 µM
[8]
  TGI: 5.12 µM
[9]
  TGI: 3.88 µM
[10]
  TGI: 14.8 µM
[11]
  TGI: 20.9 µM
[59]
  TGI: 6.6 µM
[12]
  TGI: 8.02 µM
[13]
  TGI: 4.72 µM
[14]
  TGI: 3.67 µM
[15]
  TGI: 1.96 µM
[16]
  TGI: 0.121 µM
[17]
  TGI: 0.0266 µM
[18]
  TGI: 0.00852 µM
[19]
  TGI: 4.36 µM
[20]
  TGI: 2.27 µM
[21]
  TGI: 6.77 µM
[22]
  TGI: 4.24 µM
[23]
  TGI: 6.97 µM
[24]
  TGI: 0.27 µM
[25]
  TGI: 5.03 µM
[26]
  TGI: 8.55 µM
[27]
  TGI: 25 µM
[28]
  TGI: 3.89 µM
[29]
  TGI: 0.176 µM
[30]
  TGI: 13.3 µM
[31]
  TGI: 0.136 µM
[32]
  TGI: 8.78 µM
[33]
  TGI: 9.67 µM
[34]
  TGI: 1.3 µM
[35]
  TGI: 25 µM
[36]
  TGI: 8.14 µM
[37]
  TGI: 5.53 µM
[38]
  TGI: 3.33 µM
[39]
  TGI: 1.12 µM
[42]
  TGI: 12.4 µM
[43]
  TGI: 1.66 µM
[44]
  TGI: 0.0105 µM
[46]
  TGI: 4.18 µM
[47]
  TGI: 0.555 µM
[48]
  TGI: 3.4 µM
[49]
  TGI: 19.2 µM
[50]
  TGI: 3.87 µM
[51]
  TGI: 0.438 µM
[52]
  TGI: 8.96 µM
[53]
  TGI: 1.12 µM
[54]
  TGI: 0.803 µM
[55]
  TGI: 4.42 µM
[56]
  TGI: 11.8 µM
[57]
  TGI: 0.778 µM
[58]
  TGI: 4.96 µM

## COC(=O)Nc1nc2ccccc2c(=O)[nH]1
[1]
  TGI: > 100 µM
[2]
  TGI: > 100 µM
[3]
  TGI: > 100 µM
[4]
  TGI: > 100 µM
[5]
  TGI: > 100 µM
[6]
  TGI: > 100 µM
[7]
  TGI: > 100 µM
[8]
  TGI: > 100 µM
[9]
  TGI: > 100 µM
[10]
  TGI: > 100 µM
[11]
  TGI: > 100 µM
[12]
  TGI: > 100 µM
[15]
  TGI: > 100 µM
[16]
  TGI: > 100 µM
[17]
  TGI: > 100 µM
[18]
  TGI: 50.8 µM
[19]
  TGI: > 100 µM
[20]
  TGI: > 100 µM
[21]
  TGI: > 100 µM
[22]
  TGI: > 100 µM
[23]
  TGI: > 100 µM
[24]
  TGI: > 100 µM
[26]
  TGI: > 100 µM
[27]
  TGI: > 100 µM
[28]
  TGI: > 100 µM
[29]
  TGI: > 100 µM
[30]
  TGI: > 100 µM
[31]
  TGI: > 100 µM
[32]
  TGI: > 100 µM
[33]
  TGI: > 100 µM
[34]
  TGI: > 100 µM
[35]
  TGI: > 100 µM
[36]
  TGI: > 100 µM
[37]
  TGI: > 100 µM
[38]
  TGI: > 100 µM
[39]
  TGI: > 100 µM
[40]
  TGI: > 100 µM
[41]
  TGI: > 100 µM
[42]
  TGI: > 100 µM
[43]
  TGI: > 100 µM
[45]
  TGI: > 100 µM
[46]
  TGI: > 100 µM
[47]
  TGI: > 100 µM
[48]
  TGI: > 100 µM
[49]
  TGI: > 100 µM
[50]
  TGI: > 100 µM
[51]
  TGI: > 100 µM
[52]
  TGI: > 100 µM
[53]
  TGI: > 100 µM
[54]
  TGI: > 100 µM
[55]
  TGI: > 100 µM
[56]
  TGI: > 100 µM
[57]
  TGI: > 100 µM
[58]
  TGI: > 100 µM

## N=C1C(=N)c2ccccc2-c2ccccc21
[1]
  TGI: 1.41 µM
[2]
  TGI: 2.36 µM
[3]
  TGI: 1.16 µM
[4]
  TGI: > 26.1 µM
[5]
  TGI: 5 µM
[6]
  TGI: 2.96 µM
[7]
  TGI: 2.02 µM
[9]
  TGI: 3.57 µM
[10]
  TGI: 2.49 µM
[11]
  TGI: 3.66 µM
[59]
  TGI: 4.13 µM
[12]
  TGI: 3.08 µM
[14]
  GI50: 1.75 µM
  TGI: > 100 µM
[15]
  TGI: 2.88 µM
[16]
  TGI: 3.43 µM
[17]
  TGI: 3.24 µM
[18]
  TGI: 0.325 µM
[19]
  TGI: 2.27 µM
[20]
  TGI: 2.82 µM
[21]
  TGI: 3.93 µM
[22]
  TGI: 1.46 µM
[23]
  TGI: 4.46 µM
[24]
  TGI: 3.47 µM
[25]
  TGI: 1.02 µM
[26]
  TGI: 3.35 µM
[27]
  TGI: 3.62 µM
[28]
  TGI: 2.78 µM
[29]
  TGI: 2.98 µM
[30]
  TGI: 3.01 µM
[31]
  TGI: 3.99 µM
[32]
  TGI: > 20 µM
[33]
  TGI: 6.46 µM
[34]
  TGI: 3.01 µM
[36]
  TGI: 4.16 µM
[37]
  TGI: 3.4 µM
[38]
  TGI: 1.2 µM
[39]
  TGI: 3.25 µM
[40]
  TGI: 3.81 µM
[41]
  TGI: 2.97 µM
[42]
  TGI: 2.72 µM
[43]
  TGI: 2.63 µM
[44]
  TGI: 0.4 µM
[45]
  TGI: 0.658 µM
[46]
  TGI: 1.61 µM
[47]
  TGI: 3.23 µM
[48]
  TGI: 1.57 µM
[49]
  TGI: 3.07 µM
[50]
  TGI: 2.88 µM
[51]
  TGI: 1.92 µM
[53]
  TGI: 1.53 µM
[54]
  TGI: 3.04 µM
[55]
  TGI: 2.99 µM
[56]
  TGI: 2.78 µM
[57]
  TGI: 2.23 µM
[58]
  TGI: 2.57 µM
